{
  "source": "patent US4173650A",
  "about": "“Cis-2-benzoyl-3-hydroxy-2-alkenonitriles as anti-inflammatory agents” (American Cyanamid Company, priority 1978, dated 1979)",
  "key": {"[1]": {"tested_on": "Migration Inhibitory Factor", "assay": "Migration inhibitory factor in the guinea pig (capillary tube macrophage migration assay, direct MIF assay)", "type": "cell-based, guinea pig (male Hartley)", "conditions": "number of tests wherein the percent reversal of inhibition =15%", "description": "Rheumatoid arthritis is a chronic inflammatory disease that is characterized by the migration of lymphocytes, macrophages and polymorphonuclear leukocytes to the sites of inflammation. The migration of lymphocytes and macrophages and their multiplication in situ is one reason for the very large increase in size of the normally thin synovial membrane, the membrane that encloses the joint space. The synovial membrane that has been transformed in this manner, slowly grows over the aricular surfaces and causes the destruction of the articular cartilage and other connective tissue structures of the joint. One of the mechanisms for the destruction of articular cartilage by the synovium is believed to be through the release of various hydrolytic enzymes by the resident macrophages which have been immobilized and activated by migration inhibitory factor (MIF). Macrophages stimulated by MIF are termed \"activated macrophages\" and undergo the following changes: (a) increased glucose oxidation, (b) increased ruffling of plasma membrane and increased spreading of cells, (c) synthesis and secretion of neutral proteases, (d) release of preformed lysosomal enzymes, (e) decreased migration from a capillary tube. […] Drugs that can therefore block the release of MIF by lymphocytes or the activation of macrophages by MIF should be clinically effective in retarding the destructive joint damage which occurs in rheumatoid arthritis. Drugs can be tested as MIF inhibitors by using the capillary tube migration assay as follows.\nMale Hartley guinea pigs, weighing between 300 and 600 grams, are injected intraperitoneally with 25 ml Marcal 52 Oil® (Humble Oil). Three to four days later, the guinea pigs are sacrificed by decapitation, the peritoneum opened, and the exudate aspirated into a separatory funnel after the addition of 50 ml of cold Hank's solution. This is repeated two times. The oil phase is discarded and the cell supsension is spun down at 1200 r.p.m. for ten minutes. The cells are resuspended in Hank's solution and spun down at 900 r.p.m. for five minutes. This is repeated two times. Viability of the cells is then determined using trypan blue. In all experiments, viability is greater than 90%. The cell concentration is then adjusted to give a 10% packed cell volume by the addition of the appropriate amount of MEM® (Gibco 109)+15% guinea pig serum. […] To determine the area of cell migration out of the capillary tube onto the chamber surface, the chambers are projected onto a microscope screen, the area traced onto paper, and then measured using a planimeter. […]"}, "[2]": {"tested_on": "Adjuvant Induced Arthritis", "assay": "Adjuvant-induced arthritis in the rat", "type": "in vivo, rat (Royal Hart, Wistar strain)", "conditions": "for inhibition in vivo at 50 mg/kg: oral 50 mg./kg.; for inhibition in vivo at 25 mg/kg: oral 25 mg./kg.", "description": "Groups of three Royal Hart, Wistar strain rats weighing 200±10 g. each were injected intradermally in the right hind paw with Freund's adjuvant (dried human tubercle bacilli in a mineral oil vehicle) at a dose of 2 mg./kg. of body weight. The test compounds were administered orally in a 1.5% starch vehicle at various doses once daily on days 0 to 13 post challenge. Control rats were treated in a similar manner, but given only starch vehicle. On the 14th and 21st day post challenge the diameter of the injected paw was measured by micrometer caliper. The volume of inflamed paws were estimated from these measurements and the effects of each compound are expressed as percent inhibition of swelling as compared to controls. Table II records the results of these tests conducted with representative compounds of this invention and known anti-inflammatory agents. The active compounds of this invention suppress the progression of the arthritis and associated joint deterioration.\nAdjuvant-induced experimental polyarthritis is a specific systemic disease of the rat which shares interesting similarities with rheumatoid arthritis. Specifically the histology of the two diseases bears a remarkable resemblence as shown by C. M. Pearson et al., Am. J. Path. 42, 73 (1963). E. M. Glenn, Am. J. Vet. Res. 27, (116), 339 (1966) has classified adjuvant-induced polyarthritis as a crippling and permanent deformity resulting from diffuse connective tissue involvement areound certain susceptible joints in the rat. Zahiri et al, Can. Med. Ass. J., 101, 269 (1969) have shown that the fusiform swelling of the distal joints is associated with edema, congestion and synovitis including pannus formation, all of which precede the ultimate destruction of bone and cartilage. Furthermore, Zahiri et al., indicate that the cartilage destruction in the joint is due to an invasive pannus which originates in the marginal synovium and extends across the articular surface to erode it. […] The most pointed reference showing the relationship between arthritis and joint deterioration is an X-Ray analysis of adjuvant arthritis in the rat by Blackham et al., Agents and Actions 7, 145 (1977). In a similar manner, inhibition of the progress of arthritis in paws of rats treated with the compounds of this invention also lessens associated joint deterioration."}, "[3]": {"tested_on": "Carrageenin-Induced Edema", "assay": "Carrageenin-induced edema in the rat", "type": "in vivo, rat (Royal Hart, Wistar strain)", "conditions": "by gavage, 5 hours after drug (4 hours after carrageenin challenge); dose not given", "description": "In determining the acute anti-inflammatory activity of the cis-2-benzoyl-3-hydroxy-2-alkenonitriles of the present invention, Royal Hart, Wistar strain rats, ranging in weight from 80 to 90 grams were used. The rats were fasted overnight prior to dosing but had free access to water. The test compounds were administered in aqueous suspension, by gavage, in a volume of 1.7 ml. per 50 grams of rat [corresponds to hydration volume used by Winter, et al., Proc. Soc. […] The phlogistic agent used was carrageenin prepared as a sterile 1% suspension in 0.9% aqueous sodium chloride for routine testing. A volume of 0.05 ml. was injected through a 26 gauge needle into the plantar tissue of the right hind paw. Measurements were made 5 hours after drug administration (4 hours after carrageenin challenge). Volumes of both the normal and carrageenin inflammed feet were determined. The difference between the two measurements is considered to be the increased edema due to the carrageenin administration. Results are expressed as a C/T efficacy ratio (edema of control animals/edema of treated animals)."}, "arthritic paw swelling": {"tested_on": "arthritic paw swelling", "conditions": "cited from earlier work"}, "[4]": {"conditions": "336 h, once daily days 0 to 13, read-out: % Inhibition of Swelling, Day 14"}, "[5]": {"conditions": "504 h, once daily days 0 to 13, read-out: % Inhibition of Swelling, Day 21"}},
  "note": "Where two headings read alike, the source gives them in different places.",
  "data": [
    {"smiles": "C/C(O)=C(\\C#N)C(=O)c1ccc(Br)cc1", "note": "[Cis-2-(p-bromobenzoyl)-3-hydroxycrotononitrile]", "values": [
      {"measurement": "#Actives/Total Tests", "setting": "[1]; 10 μg./ml.", "value": "2/3"}
    ]},
    {"smiles": "C/C(O)=C(\\C#N)C(=O)c1cccc(F)c1", "note": "[Cis-2-(m-fluorobenzoyl)-3-hydroxycrotononitrile]", "values": [
      {"measurement": "inhibition in vivo at 50 mg/kg", "setting": "[2]; [4]", "value": 48, "unit": "%"},
      {"measurement": "inhibition in vivo at 50 mg/kg", "setting": "[2]; [5]", "value": 37, "unit": "%"},
      {"measurement": "C/T Ratio (edema of control animals/edema of treated animals)", "setting": "[3]", "value": 1.61}
    ]},
    {"smiles": "C/C(O)=C(\\C#N)C(=O)c1ccc(C)cc1", "note": "[Cis-3-hydroxy-2-p-toluoylcrotononitrile, Cis-3-hydroxy-2-(p-toluoyl)crotonitrile]", "values": [
      {"measurement": "C/T Ratio (edema of control animals/edema of treated animals)", "setting": "[3]", "value": 1.41}
    ]},
    {"smiles": "C/C(O)=C(\\C#N)C(=O)c1ccc(Cl)cc1", "note": "[Cis-2-(p-chlorobenzoyl)-3-hydroxycrotonitrile]", "values": [
      {"measurement": "inhibition in vivo at 25 mg/kg", "setting": "[2]; [4]", "value": 58, "unit": "%"},
      {"measurement": "inhibition in vivo at 25 mg/kg", "setting": "[2]; [5]", "value": 15, "unit": "%"}
    ]},
    {"smiles": "C/C(O)=C(\\C#N)C(=O)c1ccc(C(F)(F)F)cc1", "note": "[Cis-3-hydroxy-2-(α,α,α-trifluoro-p-toluoyl)crontononitril]", "values": [
      {"measurement": "inhibition in vivo at 25 mg/kg", "setting": "[2]; [4]", "value": 68, "unit": "%"},
      {"measurement": "inhibition in vivo at 25 mg/kg", "setting": "[2]; [5]", "value": 5, "unit": "%"},
      {"measurement": "C/T Ratio (edema of control animals/edema of treated animals)", "setting": "[3]", "value": 1.97}
    ]},
    {"smiles": "C/C(O)=C(\\C#N)C(=O)c1ccc(F)cc1", "note": "[Cis-2-(p-fluorobenzoyl)-3-hydroxycrotononitrile]", "values": [
      {"measurement": "inhibition in vivo at 25 mg/kg", "setting": "[2]; [4]", "value": 65, "unit": "%"},
      {"measurement": "inhibition in vivo at 25 mg/kg", "setting": "[2]; [5]", "value": 30, "unit": "%"},
      {"measurement": "#Actives/Total Tests", "setting": "[1]; 5×10^-5 M", "value": "4/4"}
    ]},
    {"smiles": "CC(=O)Oc1ccccc1C(=O)O", "note": "[Aspirin, reference compound]", "values": [
      {"measurement": "C/T Ratio (edema of control animals/edema of treated animals)", "setting": "[3]", "value": 2.86}
    ]},
    {"smiles": "COc1ccc2c(c1)c(CC(=O)O)c(C)n2C(=O)c1ccc(Cl)cc1", "note": "[Indomethacin]", "values": [
      {"measurement": "effect on joint and bone deterioration", "setting": "arthritic paw swelling; S. Wong et al. 1973, G. R. Bobalick et al. 1974", "value": "prevent joint and bone deterioration"},
      {"measurement": "effect on arthritic paw swelling", "setting": "arthritic paw swelling; literature", "value": "inhibit arthritic paw swelling"}
    ]},
    {"smiles": "COc1ccccc1C(=O)/C(C#N)=C(/C)O", "note": "[Cis-3-hydroxy-2-(o-anisoyl)crotononitrile]", "values": [
      {"measurement": "C/T Ratio (edema of control animals/edema of treated animals)", "setting": "[3]", "value": 1.30},
      {"measurement": "#Actives/Total Tests", "setting": "[1]; 5×10^-5 M", "value": "4/5"}
    ]},
    {"smiles": "C/C(O)=C(\\C#N)C(=O)c1ccccc1Cl", "note": "[Cis-2-(o-chlorobenzoyl)-3-hydroxycrotononitrile]", "values": [
      {"measurement": "inhibition in vivo at 50 mg/kg", "setting": "[2]; [4]", "value": 39, "unit": "%"},
      {"measurement": "inhibition in vivo at 50 mg/kg", "setting": "[2]; [5]", "value": 29, "unit": "%"}
    ]},
    {"smiles": "C/C(O)=C(\\C#N)C(=O)c1cccc(Cl)c1C", "note": "[Cis-2-(3-chloro-o-toluoyl)-3-hydroxycrotononitrile]", "values": [
      {"measurement": "inhibition in vivo at 50 mg/kg", "setting": "[2]; [4]", "value": 61, "unit": "%"},
      {"measurement": "inhibition in vivo at 50 mg/kg", "setting": "[2]; [5]", "value": 17, "unit": "%"},
      {"measurement": "#Actives/Total Tests", "setting": "[1]; 5×10^-5 M", "value": "3/5"}
    ]},
    {"smiles": "C/C(O)=C(\\C#N)C(=O)c1ccccc1F", "note": "[Cis-2-(o-fluorobenzoyl)-3-hydroxycrotononitrile]", "values": [
      {"measurement": "C/T Ratio (edema of control animals/edema of treated animals)", "setting": "[3]", "value": 2.18}
    ]},
    {"smiles": "COc1ccc(C(=O)/C(C#N)=C(/C)O)cc1", "note": "[Cis-3-hydroxy-2-(p-methoxybenzoyl)crotononitrile]", "values": [
      {"measurement": "C/T Ratio (edema of control animals/edema of treated animals)", "setting": "[3]", "value": 1.59}
    ]}
  ]
}
